{"source": "patent US20250241948A1", "about": "“Engineered Extracellular Vesicle Delivery Systems and Uses Thereof” (The Texas A&M University System, priority 2020, published 2025)", "format_in_all_cases": "cell-based, human", "key": {"[1]": {"test_system": "GFP-expressing A549 cells", "assay": "siRNA-mediated GFP knockdown", "details": "lipid-siRNA complexes following electroporation, no EV", "method": "Quantification of siRNA knockdown in A549 cells: To evaluate the knockdown efficiency of EV-mediated siRNA delivery within the constitutively expressing-GFP-A549 cells over time, GFP fluorescence was measured and quantified using a plate reader (Cytation 5) every day for 12 days (34). To ensure the decrease of green fluorescence intensity is due to the RNA interference of GFP-siRNA in the cells and not caused by the cytotoxicity of the delivery system, each sample type or condition was delivered with scrambled siRNA as a control. The knockdown efficiency was calculated using the below equation: […]\nwhere Fsi is the fluorescence of the well using GFP-siRNA, Fsc is the fluorescence of the well using corresponding scrambled siRNA, Fbg is the fluorescence background of the media without cells, Fosi is the initial fluorescence of the well just prior to delivery for the GFP-siRNA formulations and Fosc is the initial fluorescence of the well prior to delivery of the corresponding scrambled siRNA control group. Commercial Lipofectamine® RNAiMax formulation was used as a positive control to compare the knockdown efficiency between samples. The formulation was prepared according to the manufacturer's instruction. Briefly, 0.3 μl of Lipofectamine® RNAiMax was used to deliver 1 pmol of siRNA. […] Area under the curve (knockdown efficiency vs time) was calculated to determine the difference in duration using GraphPad Prism 7 software.\nsiRNA knockdown efficiency: To evaluate the knockdown efficiency of LbL-EV mediated siRNA delivery within GFP-expressing A549 cells, GFP fluorescence was measured and quantified using the same apparatus (Cytation 5) every day as previously described (34, 63). The knockdown efficiency of siRNA-GFP was calculated by normalizing each sample type/condition to each individual negative control treated with scrambled siRNA. […] Area under the curve (knockdown efficiency vs time) was calculated by GraphPad Prism 7 software to determine the overall knockdown efficiency of each condition. […]"}, "[2]": {"test_system": "A549 cells", "assay": "DOX cancer killing efficiency (MTS assay)", "details": "A549, 3 days incubation", "method": "(§1) DOX cancer killing efficiency: The effects of DOX-loaded vesicles on A549/CCL210 cells were done by CellTiter 96® Aqueous Cell Proliferation assay (Promega) (MTS assay) to assess relative metabolic activity of the cells. Prior to MTS treatment, DOX-loaded vesicles were incubated with cultured A549/CCL210 cells at 60-70% confluency for 3 days at varying doses. The MTS assays were conducted after incubation for 3 days, following the manufacturer's instructions. Untreated A549 or CCL210 cells were used as positive control groups (assuming 100% metabolic activity) for normalization. Free DOX (unencapsulated) and DOX-loaded PLGA NPs were prepared as comparison groups. To obtain dose-response curves, metabolic activity was plotted versus the amount of DOX administered, which was determined based on spectrophotometric analysis of eEV/LbL-eEV/PLGA NPs. The sigmoidal dose-response curves were fitted with Hill's equation using GraphPad software: […]\n(§2) where Max is the Y value at the top plateau and Min is the Y value at the bottom plateau. IC50 (inhibitory concentration, 50%) is the X value when the response is halfway between Min and Max."}, "[3]": {"test_system": "CCL-210 cells", "assay": "DOX cancer killing efficiency (MTS assay)", "details": "CCL210, 3 days incubation", "method": "as §1, §2"}}}
{"smiles": "CCCCCCCCCCCCCCCC(=O)OC[C@H](COP(=O)([O-])OCC[N+](C)(C)C)OC(=O)CCCCCCCCCCCCCCC", "note": "[DPPC, 1,2-dipalmitoyl-sn-glycero-3-phosphocholine]", "values": [{"measurement": "GFP down-regulation by lipid-siRNA complexes", "setting": "[1]", "value": "not able to down-regulate GFP expression"}]}
{"smiles": "CCCCCCCC/C=C\\CCCCCCCC(=O)O[C@H](COC(=O)CCCCCCCCCCCCCCC)COP(=O)([O-])OCC[N+](C)(C)C", "note": "[POPC, 1-Palmitoyl-2-oleoyl-sn-glycero-3-phosphocholine]", "values": [{"measurement": "GFP down-regulation by lipid-siRNA complexes", "setting": "[1]", "value": "not able to down-regulate GFP expression"}]}
{"smiles": "COc1cccc2c1C(=O)c1c(O)c3c(c(O)c1C2=O)C[C@@](O)(C(=O)CO)C[C@@H]3O[C@H]1C[C@H](N)[C@H](O)[C@H](C)O1", "note": "[Free DOX, doxorubicin]", "values": [{"measurement": "IC10 of DOX", "setting": "[2]", "value": 0.510, "unit": "μ/ml"}, {"measurement": "IC90 of DOX", "setting": "[2]", "value": 0.690, "unit": "μ/ml"}, {"measurement": "IC10 of DOX", "setting": "[3]", "value": 0.200, "unit": "μ/ml"}, {"measurement": "IC50 of DOX", "setting": "[3]", "value": "0.400 ± 0.024", "unit": "μ/ml"}, {"measurement": "IC90 of DOX", "setting": "[3]", "value": 0.780, "unit": "μ/ml"}]}
{"smiles": "CCCCCCCC/C=C\\CCCCCCCC(=O)O[C@H](COC(=O)CCCCCCCCCCCCCCC)COP(=O)(O)OCC(O)CO", "note": "(some centres unmarked) [POPG, 1-Palmitoyl-2-oleoyl-sn-glycero-3-phosphoglycerol]", "values": [{"measurement": "GFP down-regulation by lipid-siRNA complexes", "setting": "[1]", "value": "not able to down-regulate GFP expression"}]}
